Measurements as given in ChEMBL document CHEMBL3639124, “Oxadiazole inhibitors of leukotriene production” (2013).
pIC50: −log10 of the molar value.

target: T1, Arachidonate 5-lipoxygenase-activating protein (Homo sapiens, UniProt P20292); assay: Binding Assay: Compounds area assessed for the ability to bind to FLAP in a binding assay that measures compound-specific displacement of an iodinated (125I) FLAP inhibitor via a scintillaion proximity assay format (adapted from S. Charleson et. al., Mol. Pharmacol., 1992,41 873-879).
T1 sequence (P20292 whole entry): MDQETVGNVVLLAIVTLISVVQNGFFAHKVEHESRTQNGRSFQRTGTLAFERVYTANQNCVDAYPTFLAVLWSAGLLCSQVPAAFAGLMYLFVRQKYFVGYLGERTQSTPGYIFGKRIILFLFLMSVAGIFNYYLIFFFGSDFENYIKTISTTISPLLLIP

Row | pIC50 | Structure (SMILES)
1 | 7.77 | COCCn1cc(-c2nc(C3(c4ccc(-c5cnc(N)nc5)nc4)CCC3)no2)cn1
2 | 8.43 | COC(=O)[C@@H]1CN(c2ccc(-c3nc(C4(c5ccc(-c6cnc(N)nc6)nc5)CCC4)no3)cn2)CCN1
3 | 8.49 | COCCNc1cnc(-c2nc(C3(c4ccc(-c5cnc(N)nc5)nc4)CCC3)no2)cn1
4 | 8.62 | CCNc1cnc(-c2nc(C3(c4ccc(-c5cnc(N)nc5)nc4)CCC3)no2)cn1
5 | 8.74 | CN1CCN(c2cnc(-c3nc(C4(c5ccc(-c6cnc(N)nc6)nc5)CCC4)no3)cn2)CC1
6 | 8.40 | Nc1ncc(-c2ccc(C3(c4noc(-c5ccc6[nH]ncc6c5)n4)CCC3)cn2)cn1
7 | 7.85 | CC(C)(C)NC(=O)Cn1cc(-c2nc(C3(c4ccc(-c5cnc(N)nc5)nc4)CCC3)no2)cn1
8 | 7.00 | CCNC(=O)Cn1cc(-c2nc(C3(c4ccc(-c5cnc(N)nc5)nc4)CCC3)no2)cn1
9 | 7.32 | N#CCn1cc(-c2nc(C3(c4ccc(-c5cnc(N)cn5)nc4)CCC3)no2)cn1
